# Assay results from patent EP0525360B1, “Novel phenylacetamide derivatives and processes for the preparation thereof” (KOREA RESEARCH INSTITUTE OF CHEMICAL TECHNOLOGY, priority 1991, dated 1993).
# Counter-ions that a name gives are not always drawn. Like-named read-outs stand apart in the source and are kept apart here.
# Tests used:
# [1] = tested on: Male albino rats(120-170g) of the Charles River Sprague-Dawley strain; assay: Randall-Selitto test (yeast induced hyperalgesia); format: in vivo
# Protocol: Randall-Selitto Test was carried out by following the method described in Arch. Int. Pharmacodyn.
# Male albino rats(120-170g) of the Charles River Sprague-Dawley strain were used. Inflammation was produced by the injection of 0.1mℓ of a 20% suspension of Brewer's yeast into the plantar surface of the rat's hind foot.
# The pain threshold was measured as the pressure in mmHg required to induce the desired response(a sharp audible squeak and/or struggle) when the pressure was applied to the foot. Air pressure from an air line was admitted through a needle valve to a 20mℓ glass syringe and to a pressure gauge which was connected by a T-tube. The syringe was mounted with the plunger downward to which was connected a short bullet-shaped Teflon peg. The pressure was applied to the foot of the rat at the rate of 10 mmHg per second. Drug was given 2 hours after the yeast injection. Two hours after the drug administration, threshold response was determined.
# The analgesic activity was determined in terms of the percentage of inhibition of response: Inhibition(%) =(Threshold of the treated group - Threshold of the control group)/(Threshold of the control group)x 100 [formula]
# [2] = tested on: Rats(Sprague-Dawley, female); assay: Anti-inflammatory test (carrageenin paw edema); format: in vivo; conditions: Rattus norvegicus, sc
# Protocol: Rats(Sprague-Dawley, female) weighing 100 to 120g were used. Twenty minutes after the test drug was administered(s. c.), carrageenin was injected(0.1mℓ of 1% solution, s. c.) in the plantar surface of the right hind paw.
# The percentage of inhibition was determined by the following equation: Inhibition(%) =(Volume of the carrageenin treated foot - Volume of the control foot)/(Volume of the contol foot)x 100 [formula]
# mice = assay: Tail-flick test (radiant heat); format: in vivo; conditions: p. o., dose 100 mg/Kg
# Protocol: Radiant heat was applied using a beam of high-intensity light focused on a tail spot. The response time, defined as the interval between the onset of the stimulus and the tail flick, was measured electronically(to the nearest 0.1 second). The beam intensity was set at a level giving a mean control reaction time of 3.8±0.4 seconds. […] The percentage of inhibition was determined by the following equation: Inhibition(%) =(Reaction time of the treated group - Reaction time of the control group)/(Reaction time of the control group)x 100 [formula]
# [3] = Use Examples: administration of compositions to human subjects; format: in vivo; conditions: Use Example 2 soft gelatin capsules in sesame oil; two capsules, each 27mg of the composition; 63Kg person
# Protocol: One tablet was administered orally to a patient(weight: 67kg) in need of analgesia two times daily to successfully provide the effect of general analgesia.
# The compound of Example 5 was dissolved in sesame oil with the aid of sonication and was packaged in soft gelatin capsules using the common methods known in the art.
# The above ingredients were mixed to produce a syrup which was packaged under a sterile condition in 6 oz. bottles. One teaspoon of this formulation was administrated to a 70kg adult, reducing inflammation and producing analgesia.
# The compound of Example 1 was dissolved in a solution containing the other ingredients.
# KTC-ICR mice [4] = assay: acetic acid induced writhing test; format: in vivo; conditions: Mus musculus; oral; 0.9% acetic acid i.p. 60 minutes later; writhings during 10 minutes; mice 20 to 25g; Examples 1 to 32
# Protocol: (§1) The KTC-ICR mice derived from Charles River Breeding Laboratory in the United States and provided by Experimental Animal Laboratory of Korea Research Institute of Chemical Technology were used as test animals. […] They were tested after having been adjusted to the testing environment for a week. Food and water were given freely; and illumination was maintained on a 12-hour cycle.
# (§2) Experiments were performed in two ways: that is, the acetic acid induced writhing test and the phenyl-1,4-benzoquinone(PBQ) induced writhing test.
# Solutions for the acetic acid induced writhing test were prepared by dissolving one of the end products prepared in Examples […] in a saline solution containing 1% by weight of Tween 80 to have a concentration of 5mg/mℓ and diluting it serially with the saline solution. The test solutions were administered orally in a dose of 0.3mℓ per 30g of body weight, using the 5 ICR mice for each test. 60 minutes later, 0.9% acetic acid solution was administered intraperitoneally in a dose of 0.1mℓ per 30g of body weight. 3 minutes thereafter, the number of writhings generated during a period of 10 minutes due to the administration of acetic acid was measured. For comparison purpose, initially, saline solution alone was administered orally to the control group. 60 minutes thereafter, 0.9% acetic acid solution was administered intraperitoneally to the control group.
# (§3) The number of writhings suffered by the test group was compared with that of the control group; and the analgesic effect was measured in terms of the percentage of inhibition of writhing(I. W.). I. W. (%) =(A - B)/(A)x 100 [formula] A : the number of writhings suffered by the control group, B : the number of writhings suffered by the test group.
# (§4) These ED50 values for the test compounds are shown in the last column of Table 1.
# acute toxicity test = conditions: mouse, in vivo, po, per os, 5 weeks old, observed for 14 days
# KTC-ICR mice [5] = assay: phenyl-1,4-benzoquinone(PBQ) induced writhing test; format: in vivo; conditions: Mus musculus; oral; 0.02% PBQ i.p. 60 minutes later; writhings during 5 minutes; mice 10 to 15g; Examples 33 to 46
# Protocol: as §1, §2
# Alternatively, solutions for the PBQ induced writhing test were prepared by dissolving one of the products synthesized in Examples 33 to 46 in a mixture of Tween 80, alcohol and distilled water (1:5:94); and administered orally to the 5 ICR mice for each test in a dose of 0.3mℓ per 30g of body weight. 60 minutes later, 0.02% PBQ solution was administered intraperitoneally in a dose of 0.1mℓ per 30g of body weight of the test animals. 5 minutes thereafter, at the temperature of 40°C, the number of writhings occurred during a period of 5 minutes due to the PBQ solution administered was measured. For comparison, only the mixture of Tween 80, alcohol and distilled water was administered orally to the control group; and, after 60 minutes, the PBQ solution was administered intraperitoneally to the control group in the same manner as mentioned above.
# as §3, §4
# test animals = assay: Behavior analysis (side-effect or toxicity scores); format: in vivo; parameters: key to Sedation / Dyspnoea / Vasodilation / Convulsion / Salivation / Urination: behavior score; higher number = greater side effects; conditions: behavior score; for Convulsion / Salivation / Urination: normal value 0; for Dyspnoea / Ptosis / Sedation / Vasodilation: normal value 4
# Text: In order to monitor a harmful side-effect or toxicity of the compounds having the formula(I), various behavioral changes in the test animals were observed. […] The higher the number is, the greater the side effects are.
# [6] = 5 ICR female mice, read-out: LD50(female)
# [7] = 5 ICR male mice, read-out: LD50(male)
smiles,measurement,setting,value
CC(=O)Oc1ccccc1C(=O)O [Aspirin],Inhibition(%),"[1]; dose 100 mg/Kg s. c., 10 rats, pain threshold vs yeast-treated saline control",80.1%
same,ED50,[2]; 3 h,109 mg/kg
same,Inhibition(%),mice,0%
COc1cc(CC(=O)NCCCc2ccc(C)c(C)c2)ccc1OCCN [Example 1-HCl],Inhibition(%),"[1]; dose 1.5 mg/Kg s. c., 8 rats",248.3%
COc1cc(CC(=O)NCCCc2cccc(C)c2)ccc1OCCN [Example 5],analgesic and anti-inflammatory effect in a human subject,[3],producing the effects of analgesia and reducing inflammation
same,ED50,KTC-ICR mice [4],0.07 mg/kg
same,ED50,"[2]; s. c., twenty minutes before carrageenin, edema volume 3 hours later, read-out: ED50",16.9 mg/kg
same,LD50 at 336 h,acute toxicity test; [6],125 mg/kg
same,LD50 at 336 h,acute toxicity test; [7],125 mg/kg
Cc1ccc(CCCNC(=O)Cc2ccc(OCCN)c(F)c2)cc1 [Example 11],ED50,KTC-ICR mice [4],0.01 mg/kg
same,LD50 at 336 h,acute toxicity test; [6],322 mg/kg
same,LD50 at 336 h,acute toxicity test; [7],500 mg/kg
Cc1cc(C)cc(CCCNC(=O)Cc2ccc(OCCN)c(F)c2)c1 [Example 15],ED50,KTC-ICR mice [4],0.02 mg/kg
same,LD50 at 336 h,acute toxicity test; [6],> 2000 mg/kg
same,LD50 at 336 h,acute toxicity test; [7],> 2000 mg/kg
"Cc1cccc(CCCNC(=O)Cc2ccc(OCCN)c(N)c2)c1 [Example 38, N-{3-(3-methylphenyl)propyl}-4-(2-aminoethoxy)-3-aminophenylacetamide]",ED50,KTC-ICR mice [5],22.1 mg/kg
same,Convulsion,test animals; dose 6.7mg/Kg,0
same,Salivation,test animals; dose 6.7mg/Kg,0
same,Urination,test animals; dose 6.7mg/Kg,0
same,Dyspnoea,test animals; dose 6.7mg/Kg,4
same,Ptosis,test animals; dose 6.7mg/Kg,4
same,Sedation,test animals; dose 6.7mg/Kg,4
same,Vasodilation,test animals; dose 6.7mg/Kg,4
same,Convulsion,test animals; dose 20mg/Kg,0
same,Salivation,test animals; dose 20mg/Kg,0
same,Urination,test animals; dose 20mg/Kg,0
same,Dyspnoea,test animals; dose 20mg/Kg,4
same,Ptosis,test animals; dose 20mg/Kg,5
same,Sedation,test animals; dose 20mg/Kg,4
same,Vasodilation,test animals; dose 20mg/Kg,4
same,Convulsion,test animals; dose 60mg/Kg,0
same,Salivation,test animals; dose 60mg/Kg,0
same,Urination,test animals; dose 60mg/Kg,0
same,Dyspnoea,test animals; dose 60mg/Kg,7
same,Ptosis,test animals; dose 60mg/Kg,7
same,Sedation,test animals; dose 60mg/Kg,6
same,Vasodilation,test animals; dose 60mg/Kg,4
